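96-well plates; 48 h exposure; 5 concentrations. Endpoints by linear interpolation between flanking doses. Not reached: highest tested concentration assigned. GI50 marks 50% less growth.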 Activity calls are given as the source filed them. Rule as the data show it: active = GI50 up to about 1.1 µM and inactive = higher.
Assays:
Test in all cases: inhibition of tumour cell growth, NCI panel, 48 h
CCRF-CEM = system: CCRF-CEM
HL-60 = system: HL-60
HOP-18 = system: HOP-18
HOP-62 = system: HOP-62
IGROV-1 = system: IGROV-1
LXFL 529 = system: LXFL 529
M14 = system: M14
MOLT-4 = system: MOLT-4
OVCAR-3 = system: OVCAR-3
OVCAR-4 = system: OVCAR-4
OVCAR-5 = system: OVCAR-5
SNB-78 = system: SNB-78
UO-31 = system: UO-31
XF498 = system: XF498
SR = system: SR

| Compound | GI50 (CCRF-CEM) | GI50 (HL-60) | GI50 (HOP-18) | GI50 (HOP-62) | GI50 (IGROV-1) | GI50 (LXFL 529) | GI50 (M14) | GI50 (MOLT-4) | GI50 (OVCAR-3) | GI50 (OVCAR-4) | GI50 (OVCAR-5) | GI50 (SNB-78) | GI50 (UO-31) | GI50 (XF498) | GI50 (SR) |
| --- | --- | --- | --- | --- | --- | --- | --- | --- | --- | --- | --- | --- | --- | --- | --- |
| O=C(N/N=C/c1ccccc1O)N/N=C/c1ccccc1O | > 100 µM (inactive) | > 100 µM (inactive) | > 100 µM (inactive) | > 100 µM (inactive) | > 100 µM (inactive) | > 100 µM (inactive) | > 100 µM (inactive) | > 100 µM (inactive) | > 100 µM (inactive) | > 100 µM (inactive) | > 100 µM (inactive) | > 100 µM (inactive) | > 100 µM (inactive) | > 100 µM (inactive) | – |
| CCCCN1C(=O)NC(Cc2ccccc2)C1=O (configuration not stated) | – | – | > 100 µM (inactive) | > 100 µM (inactive) | – | > 100 µM (inactive) | > 100 µM (inactive) | – | – | – | > 100 µM (inactive) | > 100 µM (inactive) | > 100 µM (inactive) | > 100 µM (inactive) | > 100 µM (inactive) |
| COC(=O)C1CCC(N2C(=O)CCC2C(=O)OC)=N1 (configuration not stated) | > 100 µM (inactive) | > 100 µM (inactive) | > 100 µM (inactive) | > 100 µM (inactive) | > 100 µM (inactive) | > 100 µM (inactive) | > 100 µM (inactive) | > 100 µM (inactive) | > 100 µM (inactive) | > 100 µM (inactive) | > 100 µM (inactive) | > 100 µM (inactive) | > 100 µM (inactive) | > 100 µM (inactive) | – |
| O=c1[nH]c2c(O)cccc2c2cc3c(c(O)c12)OCO3 [NARCIPRIMINE] | 10 µM (inactive) | 6.44 µM (inactive) | 0.0524 µM (active) | 19.2 µM (inactive) | 26.1 µM (inactive) | 18.3 µM (inactive) | 20.4 µM (inactive) | 16.8 µM (inactive) | 21.5 µM (inactive) | 11.9 µM (inactive) | – | 21.3 µM (inactive) | 17.1 µM (inactive) | 15.6 µM (inactive) | – |
| CC1(C)C2=CCCC(=O)[C@@]2(C)CC[C@@H]1O | > 100 µM (inactive) | > 100 µM (inactive) | > 100 µM (inactive) | > 100 µM (inactive) | > 100 µM (inactive) | > 100 µM (inactive) | > 100 µM (inactive) | > 100 µM (inactive) | > 100 µM (inactive) | > 100 µM (inactive) | > 100 µM (inactive) | > 100 µM (inactive) | > 100 µM (inactive) | > 100 µM (inactive) | > 100 µM (inactive) |
| N#CCCN(CCC#N)c1ccc(/C=C(\NC(=O)c2cc([N+](=O)[O-])ccc2Cl)C(=O)Nc2ccccc2)cc1 | 5.87 µM (inactive) | – | > 100 µM (inactive) | 45.2 µM (inactive) | > 100 µM (inactive) | 10.5 µM (inactive) | – | 32.2 µM (inactive) | > 100 µM (inactive) | > 100 µM (inactive) | 99.8 µM (inactive) | > 100 µM (inactive) | > 100 µM (inactive) | > 100 µM (inactive) | 36.3 µM (inactive) |
| COC(=O)CCC(=O)Nc1cc(Cl)ccc1Cl | > 100 µM (inactive) | > 100 µM (inactive) | > 100 µM (inactive) | > 100 µM (inactive) | > 100 µM (inactive) | > 100 µM (inactive) | > 100 µM (inactive) | > 100 µM (inactive) | > 100 µM (inactive) | > 100 µM (inactive) | > 100 µM (inactive) | > 100 µM (inactive) | > 100 µM (inactive) | > 100 µM (inactive) | > 100 µM (inactive) |
| COC(=O)[C@]1(C)C(OC)=CC(=O)C2C1[C@H]1CCC[C@@H]21 (some centres not stated) | > 100 µM (inactive) | > 100 µM (inactive) | > 100 µM (inactive) | > 100 µM (inactive) | > 100 µM (inactive) | > 100 µM (inactive) | > 100 µM (inactive) | > 100 µM (inactive) | > 100 µM (inactive) | – | > 100 µM (inactive) | > 100 µM (inactive) | > 100 µM (inactive) | > 100 µM (inactive) | > 100 µM (inactive) |
| CC(C)(C)NNC(=O)/C(=C/c1ccc(Oc2ccc(Cl)c(Cl)c2)cc1)NC(=O)c1ccccc1 | 69.5 µM (inactive) | 40.5 µM (inactive) | > 100 µM (inactive) | > 100 µM (inactive) | > 100 µM (inactive) | > 100 µM (inactive) | > 100 µM (inactive) | 65 µM (inactive) | > 100 µM (inactive) | > 100 µM (inactive) | > 100 µM (inactive) | > 100 µM (inactive) | > 100 µM (inactive) | > 100 µM (inactive) | 16.9 µM (inactive) |

— ChEMBL document CHEMBL1201862, “PubChem BioAssay data set” (2004)
